Patent US8772321B2, “Heteroannelated anthraquinone derivatives for inhibiting cancers” (National Defense Medical Center, priority 2008, dated 2014)

Legend:
[1] = system: p53-dependent reporter (pG13-LUC); assay: p53-dependent reporter (pG13-LUC) luciferase assay; format: cell-based, human
Method: (§1) HeLa and HeLa/shp53 cells were grown in DMEM supplemented with 10% charcoal/dextran-treated fetal bovine serum. Cells in a 24-well plate were transfected with jetPEI (PolyPlus-transfection, France) according to the manufacturer's protocol; total DNA was adjusted to 1.0 μg by the addition of empty vector DNA. Luciferase assays were performed using the Promega Luciferase Assay kit, and the measurement was expressed numerically as relative light units (RLU). Luciferase activities were presented as means and standard deviation of two transfected sets. […] Instead, the reproducibility of the observed effects on luciferase activity was determined in multiple independent transfection experiments.
(§2) HeLa cells infected with human papillomavirus and expressing the E6 oncoprotein, which maintains endogenous wild-type p53 at a very low concentration, are used as a model system for studying human cervical tumorigenesis. In order for us to confirm the effects of DXR and NSC745885 on endogenous p53, HeLa cells were transiently transfected with a p53-dependent reporter (pG13-LUC) (FIG. 7A) and a p21 promoter reporter (p21-LUC) (FIG. 7B), along with an expression vector for a well-known p53 activator (Zac1).

HeLa cells [2] = assay: Autophagosome formation, GFP-LC3 fluorescence microscopy; format: cell-based, human; conditions: HeLa cells transfected with GFP-LC3; 2.5 μM NSC745885, 12 hours
Method: In FIG. 5B, HeLa cells were transfected with 0.25 μg of an expression vector for GFP-LC3 for 24 hours and then treated with 2.5 μM NSC745885 for 12 hours. […] Vehicle (DMSO) and spermidine (Spd) were used as a negative and positive control, respectively.
In FIGS. 5C and 5D, HeLa cells were incubated with 2.5 μM NSC745885 for 24 hours. After 48 hours, cells were subjected to SA-β-galactosidase staining (FIG. 5C) and approximately 100 stained cells were quantified (*P<0.05; ** P<0.01; *** P<0.005). NSC745885 induced senescence at a rate of 25% (P=0.0085 compared to DMSO). (FIG. 5D) LC3B-I fragments were observed when the cells were exposed to the drug for longer period of time (FIG. 5A, panel labeled as LE). […] We also treated Hela cells with the autophagy inducer spermidine (Spd) and vehicle (DMSO), which act as the positive and the negative control, respectively.

HT29 = assay: NCI 60-cell panel dose-response; format: cell-based; conditions: Homo sapiens, HT-29; HT29 (Colon cancer)
COLO 205 = assay: NCI 60-cell panel dose-response; format: cell-based; conditions: Homo sapiens; COLO 205 (Colon cancer)
HeLa/shp53 cells = assay: MTT cell viability assay, HeLa vs HeLa/shp53; format: cell-based, human; conditions: endogenous p53 silenced; 24, 48, 72 hours
Method: as §1
To understand the functional role that endogenous p53 plays in the cytotoxic effects of DXR and NSC745885, we measured cell viability of HeLa or HeLa/shp53 cells using MTT cell viability assay. In this assay, endogenous p53 is silenced, both in the presence or absence of the drugs (FIG. 8). […]

SAS cells = assay: SAS cell proliferation / morphology; format: cell-based; conditions: 2.5 uM and 5 uM, 24 hours
HeLa cells [3] = assay: Apoptosis: cleaved PARP and caspase 3 immunoblot, DNA fragmentation gel; format: cell-based, human; conditions: 16 hours
Method: It is well noted that DXR can induce cardiomyocyte death by apoptosis and necrosis. DXR is also involved in other types of cellular processes, such as autophagy and senescence/aging. To investigate induction of apoptosis caused by NSC745885, we adopted DXR as a positive control and examined the levels of cleaved PARP and caspase 3 as apoptotic indicators using immunoblot (FIG. 4A), as well as DNA fragmentation using agarose gel electrophoresis (FIG. 4B). HeLa cells were treated with either DXR or NSC745885 at various doses for 16 hours. Subsequently, the total cellular protein was extracted and immunoblotted with antibodies against the cleaved types of PARP and caspase 3. Additionally, genomic DNA was isolated and analyzed by 2% agarose gel electrophoresis followed by ethidium bromide staining. The results (FIG. 4A and FIG. 4B) are representative of three independent experiments. […] Treatment with NSC745885 decreased protein stability, an effect that appeared to be selective, and was confirmed in other immunoblot analyses (shown in FIG. 6A, lanes 1 and 6).
(§3) Cell lysates were prepared in lysis buffer (100 mM Tris-HCl pH 8.0, 150 mM NaCl, 0.1% SDS, and 1% Triton 100) at 4° C., separated by sodium dodecyl sulfate-polyacrylamide gel electrophoresis (SDS-PAGE), and then transferred onto a polyvinylidine difluoride membrane (Millipore, USA). Proteins were detected using antibodies against alpha actinin (ACTN), proliferating cell nuclear antigen (PCNA), p53, p21, cyclin B1, and cyclin D1 (Santa Cruz Biotechnology, USA), YH2A.X (EP854(2)Y, Epitomics, USA), cleaved caspase 3, cleaved poly(ADP-ribose) polymerase (PARP) and LC3B-II (Cell signaling, USA).

HeLa cells [4] = assay: DNA damage, immunoblot of γ-phosphorylation of histone H2A.X; format: cell-based, human; conditions: various doses, 12 hour
Method: The anthracyclin antibiotic agent doxorubicin (DXR) is an active cytotoxic reagent with a wide range of clinical indications, including treatment of solid tumors in the ovary, breast, and gastrointestinal systems, as well as treatment of liquid tumors such as leukemia. […] Specifically, HeLa cells were treated with NSC745885 at various doses for 12 hour. The phosphorylation of γ-H2A.X was subsequently detected by the immunoblot.
as §3

HeLa cells [5] = assay: Autophagy: LC3B-II immunoblot; format: cell-based, human; conditions: 12 hours
Method: as §3
Altered intracellular localization of LC3B (LC3B-I) and increased electrophoretic mobility of LC3B (LC3B-II) are correlated with recruitment to autophagic membranes and can be used as molecular markers for autophagic activation.
In FIG. 5A, HeLa cells were treated with the indicated concentrations of DXR, NSC745885 for 12 hours, and then cell lysates were analyzed by immunoblot using antibodies directed against LC3. The results are representative of three independent experiments.

[6] = system: p21 promoter reporter (p21-LUC); assay: p21 promoter reporter (p21-LUC) luciferase assay; format: cell-based, human; conditions: HeLa cells, highest concentration
Method: as §1, §2

`O=C1c2ccccc2C(=O)c2c1ccc1nsnc21` [NSC745885, anthra[2,1-c][1,2,5]thiadiazole-6,11-dione] was tested, and the “Zac1-induced p53-dependent reporter activity” value ([1]; HeLa cells co-transfected with Zac1 expression vector) was “inhibited Zac1-induced activity”, the pG13-LUC reporter activity ([1]; HeLa cells transiently transfected, without Zac1) was “enhanced pG13-LUC reporter activity in a concentration-dependent manner” and the “autophagosome formation (LC3 aggregation, GFP-LC3)” value (HeLa cells [2]) was “autophagosome formation”. The GI50 (HT29) was 13.4 µM, the GI50 (COLO 205) was 13.4 µM and the “sensitivity (cell viability, MTT) in HeLa/shp53 versus HeLa cells” value (HeLa/shp53 cells) was “significantly enhanced”. For the same molecule, the SAS cells proliferation (SAS cells) was “significantly inhibit”, the “protein levels of cleaved PARP and caspase 3 at high concentration” value (HeLa cells [3]; 25 μM, compared to DXR) was “dramatically decreased” and the “induction of apoptosis (cleaved PARP, caspase 3, DNA fragmentation)” value (HeLa cells [3]; various doses) was “comparable effect”. The “DNA damage (phosphorylation of γ-H2A.X, immunoblot)” value (HeLa cells [4]) was “strongly induced DNA damage”, the “LC3B-II fragment formation (autophagic activation)” value (HeLa cells [5]) was “LC3B-II fragment formation” and the “p21 promoter reporter activity” value [6] was “decreased p21 promoter reporter activity”.
